Data published in patent publication US4529549A, “Spergualin-related compounds and process for the preparation thereof” (Zaidan Hojin Biseibutsu Kagaku Kenkyu Kai, priority 1982, dated 1985).
Values after ≈ are worked out from the molar mass of the structure shown. Like-named read-outs stand apart in the source and are kept apart here. Values belong to the molecule of their own block, whether it stands above or below them.

Experiments:
[1] = Toxicity: change in body weight in mice transplanted with L1210; assay type: in vivo, mouse (male CDF1-SLC); settings: once daily for 9 days
Method: (§1) Leukemia L1210 cells (1×10^5 /0.2 ml) were transplanted intraperitoneally into male CDF1 -SLC mice (6 mice/group). Each of the compounds of this invention was diluted with physiological saline to various concentrations. Each dilution was administered at a dose of 0.1 ml/10 g of body weight once daily for 9 days, starting on the day after the day of the transplantation. The mice of the control group were administered physiological saline.
Change in body weight, the measure of the toxicity of the compounds of this invention, was expressed by a difference between the change in body weight for the group receiving the compound of this invention and that for the control group receiving physiological saline and undergoing no transplantation.

[2] = test system: mouse leukemia L1210 cells; assay: In vitro proliferation-inhibiting action on mouse leukemia L1210 cells; assay type: cell-based; settings: 48 hours at 37° C.
Method: Leukemia L1210 cells (1×10^5 /0.2 ml) were transplanted to female DBA/2 mice intraperitoneally. four days later, the ascitic fluid was collected and centrifuged to obtain proliferated L1210 cells. The L1210 cells collected were added to RPMI1640 medium containing bovine fetal serum and 2-mercaptoethanol, to obtain a suspension of L1210 cells having a final concentration of 5×10^4 cells/0.9 ml. Each of the compounds of this invention was dissolved in said culture medium to prepare solutions with final concentrations ranging from 0.062 to 100 μg/ml. 0.9 ml of the L1210 cell suspension and 0.1 ml of each test solution were mixed in petri dishes, and incubated for 48 hours at 37° C. in an incubator under an atmosphere of carbon dioxide gas. The number of L1210 cells was counted before and after the incubation, and that concentration of the compound which inhibited the proliferation of L1210 cells by 50% of the control's proliferation was determined (IC50).

Bacillus subtilis PCI219 = assay: Growth-inhibiting action on Bacillus subtilis (agar plate MIC); assay type: cell-based; settings: Bacillus subtilis
Method: Each of the compounds of this invention was dissolved in nutrient agar media to final concentrations of 100, 50, 25, 12.5, 6.25, 3.13 and 1.56 μg/ml, to prepare agar plates for testing. Bacillus subtilis PCI219 was adjusted to a content of 1×10^6 viable cells/ml, in a culture broth, and a loopful of the broth was applied onto the agar plates. The plates were incubated for 20 hours at 37° C. under stationary conditions, and observed for the formation of colonies of Bacillus subtilis. The lowest of the concentrations at which no colonies were formed was taken to be minimum inhibitory concentration (MIC).

mouse leukemia L1210 = assay: Life-prolonging effect in mouse leukemia L1210; assay type: in vivo, mouse (male CDF1-SLC); settings: once daily for 9 days, >125 effective
Method: as §1
The average number of days that the group receiving the compound of this invention survived was calculated. The FIGURE obtained was divided by the average number of survival days for the control group, and was multiplied by 100 (T/C (%)). T/C value more than 125 was considered to be effective.

[3] = Stability of the compounds in aqueous solutions (HPLC residual content); assay type: physicochemical; settings: water
Method: Each of the compounds of this invention was dissolved in water to a concentration of 0.5 (w/w)%. The aqueous solution was maintained at 40°±1° C., and sampled at certain time intervals. Each sample was subjected to high-performance liquid chromatographic analysis to measure the area of the peak of the compound at each sampling time, and to calculate the ratio of the area of the peak after the indicated period of time to that at the first sampling time. The results of the calculation were used to determine the contents (%) of the compound of this invention in the aqueous solution after the indicated periods of time, with the initial content of said compound set at 100%.

mouse leukemia L-1210 = settings: cited from earlier work
mouse leukemia FL-4 = settings: cited from earlier work
Gram-negative bacteria = settings: cited from earlier work
sarcoma 180 (S-180) = settings: cited from earlier work
Gram-positive bacteria = settings: cited from earlier work
Ehrlich carcinoma = settings: cited from earlier work

- IC50 [2]: 1.7 µg/mL
- MIC (Bacillus subtilis PCI219; PCI219, nutrient agar, 20 hours at 37° C., read-out: MIC): 6.25 µg/mL
- remaining at 12 h [3]: 99.7%
- remaining at 24 h [3]: 100%
- remaining at 48 h [3]: 99.7%
- remaining at 72 h [3]: 99.7%
- remaining at 120 h [3]: 99.8%
- remaining at 168 h [3]: 99.9%
Structure (SMILES): Cl.Cl.Cl.N=C(N)NCCCCCCC(=O)NCC(=O)NCCCCNCCCN [Compound 1, 10-[N-(7-guanidinoheptanoyl)-glycyl]-1,5,10-triazadecane trihydrochloride]
- Change in body weight (g) ([1]; 0.39 mg/kg/day): +1.8 g
- Change in body weight (g) ([1]; 0.78 mg/kg/day): +2.7 g
- Change in body weight (g) ([1]; 1.56 mg/kg/day): +1.0 g
- Change in body weight (g) ([1]; 3.13 mg/kg/day): +0.8 g
- Change in body weight (g) ([1]; 6.25 mg/kg/day): +0.9 g
- Change in body weight (g) ([1]; 12.50 mg/kg/day): +0.2 g
- Change in body weight ([1]; 25.00 mg/kg/day): -1.6 g
- T/C (%) (mouse leukemia L1210; 0.39 mg/kg/day): 126%
- T/C (%) (mouse leukemia L1210; 0.78 mg/kg/day): > 250%
- T/C (%) (mouse leukemia L1210; 1.56 mg/kg/day): > 388%
- T/C (%) (mouse leukemia L1210; 3.13 mg/kg/day): > 667%
- T/C (%) (mouse leukemia L1210; 6.25 mg/kg/day): > 769%
- T/C (%) (mouse leukemia L1210; 12.50 mg/kg/day): > 528%
- T/C (%) (mouse leukemia L1210; 25.00 mg/kg/day): > 279%
- T/C (%) (mouse leukemia L1210; 50.00 mg/kg/day): 12.9%

Structure (SMILES): Cl.Cl.Cl.N=C(N)NCCCCCCC(=O)N[C@@H](CO)C(=O)NCCCCNCCCN [Compound 2, 10-[N-(7-guanidinoheptanoyl)-L-seryl]-1,5,10-triazadecane trihydrochloride]
- Change in body weight (g) ([1]; 0.39 mg/kg/day): +2.7 g
- Change in body weight (g) ([1]; 0.78 mg/kg/day): +1.5 g
- Change in body weight (g) ([1]; 1.56 mg/kg/day): +1.3 g
- Change in body weight (g) ([1]; 3.13 mg/kg/day): +0.6 g
- Change in body weight (g) ([1]; 6.25 mg/kg/day): +1.0 g
- Change in body weight ([1]; 12.50 mg/kg/day): -0.2 g
- IC50 [2]: 4.5 µg/mL
- MIC (Bacillus subtilis PCI219; PCI219, 20 h): 12.5 µg/mL
- T/C (%) (mouse leukemia L1210; 0.39 mg/kg/day): 124%
- T/C (%) (mouse leukemia L1210; 0.78 mg/kg/day): > 346%
- T/C (%) (mouse leukemia L1210; 1.56 mg/kg/day): > 769%
- T/C (%) (mouse leukemia L1210; 3.13 mg/kg/day): > 769%
- T/C (%) (mouse leukemia L1210; 6.25 mg/kg/day): > 705%
- T/C (%) (mouse leukemia L1210; 12.50 mg/kg/day): > 612%
- T/C (%) (mouse leukemia L1210; 25.00 mg/kg/day): 100%
- T/C (%) (mouse leukemia L1210; 50.00 mg/kg/day): 12.8%
- remaining at 12 h [3]: 100%
- remaining at 24 h [3]: 100%
- remaining at 48 h [3]: 99.8%
- remaining at 72 h [3]: 100%
- remaining at 120 h [3]: 99.7%
- remaining at 168 h [3]: 99.8%

Structure (SMILES): N=C(N)NCCCCC(O)CC(=O)NC(O)C(=O)NCCCCNCCCN (stereo not drawn) [Spergualin]
- curing effect and life extension effect (mouse leukemia L-1210): distinctive curing effect and life extension effect
- Change in body weight (g) ([1]; 0.78 mg/kg/day): +0.8 g
- Change in body weight (g) ([1]; 1.56 mg/kg/day): +2.5 g
- Change in body weight (g) ([1]; 3.13 mg/kg/day): +1.2 g
- Change in body weight (g) ([1]; 6.25 mg/kg/day): +0.9 g
- Change in body weight (g) ([1]; 12.50 mg/kg/day): +0.8 g
- Change in body weight (g) ([1]; 25.00 mg/kg/day): +1.1 g
- Change in body weight (g) ([1]; 50.00 mg/kg/day): +0.2 g
- curing effect and life extension effect (mouse leukemia FL-4): distinctive curing effect and life extension effect
- IC50 [2]: 4.6 µg/mL (≈ 11.4 µM)
- growth inhibitory activity (Gram-negative bacteria): growth inhibitory activity
- T/C (%) (mouse leukemia L1210; 0.78 mg/kg/day): 129%
- T/C (%) (mouse leukemia L1210; 1.56 mg/kg/day): > 224%
- T/C (%) (mouse leukemia L1210; 3.13 mg/kg/day): > 665%
- T/C (%) (mouse leukemia L1210; 6.25 mg/kg/day): > 769%
- T/C (%) (mouse leukemia L1210; 12.50 mg/kg/day): > 700%
- T/C (%) (mouse leukemia L1210; 25.00 mg/kg/day): > 524%
- T/C (%) (mouse leukemia L1210; 50.00 mg/kg/day): > 342%
- curing effect and life extension effect (sarcoma 180 (S-180)): distinctive curing effect and life extension effect
- Residual content (%) of the compound in an aqueous solution ([3]; 12 h): 94.6%
- Residual content (%) of the compound in an aqueous solution ([3]; 24 h): 90.8%
- Residual content (%) of the compound in an aqueous solution ([3]; 48 h): 84.6%
- Residual content (%) of the compound in an aqueous solution ([3]; 72 h): 78.5%
- Residual content (%) of the compound in an aqueous solution ([3]; 120 h): 69.9%
- Residual content (%) of the compound in an aqueous solution ([3]; 168 h): 65.1%
- growth inhibitory activity (Gram-positive bacteria): growth inhibitory activity
- curing effect and life extension effect (Ehrlich carcinoma): distinctive curing effect and life extension effect
